The record followed here is patent US20160039842A1, “OXAZOLO[5,4-C]QUINOLIN-2-ONE COMPOUNDS AS BROMODOMAIN INHIBITORS” (EPIGENETIX, INC., priority 2013, published 2016).

Usually IC50 stands for the midpoint of a concentration-inhibition curve. Low readings indicate inhibition by little substance, high ones a need for much substance.

The assay concerns the target T1, BRD4(BD1) (Homo sapiens, UniProt O60885).
T1 construct: purchased BPS Bioscience
Nature of the assay: In Vitro Bromodomain Inhibition Assay (AlphaLISA, H4-tetraacetyl peptide). In kind it is binding. To be noted: His-tagged BRD4(BD1) 200 nM, biotinylated H4-tetraacetyl peptide 200 nM, room temperature. The protocol: To measure activity of bromodomain inhibitors, a His-epitope tagged BRD4 BD149-170 was purchased from BPS Bioscience. BRD4 binding and inhibition was assessed by monitoring the engagement of biotinylated H4-tetraacetyl peptide (H4K5/8/12/16; AnaSpec #64989-025) with the target using the AlphaLISA technology (Perkin-Elmer). Specifically, in a 384 well OptiPlate, BRD4(BD1) (200 nM final) was pre-incubated with either DMSO (final 1.0% DMSO) or a compound dilution series in DMSO. All reagents were diluted in assay buffer containing 50 mM HEPES (pH 7.4), 100 mM NaCl, 0.1% (w/v) BSA, and 0.05% (w/v) CHAPS. After a 30 minute incubation at room temperature, H4 peptide was added (200 nM final) and the reaction was incubated an additional 30 minutes at room temperature. Alpha. streptavidin donor beads and AlphaLISA nickel chelate acceptor beads were then added to a final concentration of 10 ug/mL each. After one hour, equilibration plates were read on an Envision instrument and IC50s calculated using a four parameter non-linear curve fit.
In general terms: Alpha assays give light when donor and acceptor beads are brought close together.
`CCOC(=O)c1nc2cc(-c3c(C)noc3C)c(OC)cc2c2c1oc(=O)n2Cc1ccccc1` [Example 1, Ethyl 1-benzyl-7-(3,5-dimethylisoxazol-4-yl)-8-methoxy-2-oxo-oxazolo[5,4-c]quinoline-4-carboxylate] had an IC50 of under 1000 nM.

For the compound `COc1cc2c(cc1-c1c(C)noc1C)ncc1oc(=O)n(Cc3ccccc3)c12` [Example 2, 1-Benzyl-7-(3,5-dimethylisoxazol-4-yl)-8-methoxy-oxazolo[5,4-c]quinolin-2-one], the IC50 was under 1000 nM.

The compound `COc1cc2c(cc1-c1c(C)noc1C)ncc1oc(=O)n([C@H](C)c3ccccn3)c12` [Example 3, 7-(3,5-Dimethylisoxazol-4-yl)-8-methoxy-1-[(1R)-1-(2-pyridyl)ethyl]oxazolo[5,4-c]quinolin-2-one] returned an IC50 of under 1000 nM.

`COc1cc2c(cc1-c1c(C)noc1C)ncc1oc(=O)n([C@H](C)c3ccccc3)c12` [Example 12A, 7-(3,5-Dimethylisoxazol-4-yl)-8-methoxy-1-[(1R)-1-phenylethyl]oxazolo[5,4-c]quinolin-2-one] returned an IC50 of under 1000 nM.

For the compound `COc1cc2c(cc1-c1c(C)noc1C)ncc1oc(=O)n(Cc3ccccc3Cl)c12` [Example 18, 1-[(2-Chlorophenyl)methyl]-7-(3,5-dimethylisoxazol-4-yl)-8-methoxy-oxazolo[5,4-c]quinolin-2-one], the IC50 is under 1000 nM.

In the case of `COc1cc2c(cc1-c1c(C)noc1C)nc(CO)c1oc(=O)n(Cc3ccccc3)c12` [Example 33, 1-Benzyl-7-(3,5-dimethylisoxazol-4-yl)-4-(hydroxymethyl)-8-methoxy-oxazolo[5,4-c]quinolin-2-one], the IC50 is under 1000 nM.

Regarding `CCOC(=O)c1nc2cc(-c3c(C)noc3C)c(OC)cc2c2c1oc(=O)n2[C@H](C)c1ccccc1` [Example 34, Ethyl 7-(3,5-Dimethylisoxazol-4-yl)-8-methoxy-2-oxo-1-[(1R)-1-phenylethyl]oxazolo[5,4-c]quinoline-4-carboxylate], the IC50 was under 1000 nM.

`COc1cc2c(cc1-c1c(C)noc1C)nc(CO)c1oc(=O)n([C@H](C)c3ccccc3)c12` [Example 35, 7-(3,5-Dimethylisoxazol-4-yl)-4-(hydroxymethyl)-8-methoxy-1-[(1R)-1-phenylethyl]oxazolo[5,4-c]quinolin-2-one] had an IC50 of under 1000 nM.

`COc1cc2c(cc1-c1c(C)noc1C)nc(C)c1oc(=O)n([C@H](C)c3ccccc3)c12` [Example 36, 7-(3,5-Dimethylisoxazol-4-yl)-8-methoxy-4-methyl-1-[(1R)-1-phenylethyl]oxazolo[5,4-c]quinolin-2-one] came in with an IC50 of under 1000 nM.

Turning to `COc1cc2c(cc1-c1c(C)noc1C)ncc1oc(=O)n(Cc3c(C)cccc3F)c12` [Example 37, 7-(3,5-Dimethylisoxazol-4-yl)-1-[(2-fluoro-6-methyl-phenyl)methyl]-8-methoxy-oxazolo[5,4-c]quinolin-2-one], the IC50 is under 1000 nM.

`COCc1nc2cc(-c3c(C)noc3C)c(OC)cc2c2c1oc(=O)n2[C@H](C)c1ccccc1` [Example 38, 7-(3,5-Dimethylisoxazol-4-yl)-8-methoxy-4-(methoxymethyl)-1-[(1R)-1-phenylethyl]oxazolo[5,4-c]quinolin-2-one] came in with an IC50 of under 1000 nM.

Consider `CC[C@H](c1ccccc1)n1c(=O)oc2cnc3cc(-c4c(C)noc4C)c(OC)cc3c21` [Example 39, 7-(3,5-Dimethylisoxazol-4-yl)-8-methoxy-1-[(1R)-1-phenylpropyl]oxazolo[5,4-c]quinolin-2-one], for which the IC50 was under 1000 nM.

In turn, `COc1cc2c(cc1-c1c(C)noc1C)ncc1oc(=O)n([C@H](C)c3ccc(Cl)cc3)c12` [Example 40, 1-[(1R)-1-(4-Chlorophenyl)ethyl]-7-(3,5-dimethylisoxazol-4-yl)-8-methoxy-oxazolo[5,4-c]quinolin-2-one] registered an IC50 of under 1000 nM.

As for `COc1cc2c(cc1-c1c(C)noc1C)nc(CN1CCOCC1)c1oc(=O)n(Cc3ccccc3)c12` [Example 41, 1-Benzyl-7-(3,5-dimethylisoxazol-4-yl)-8-methoxy-4-(morpholinomethyl)oxazolo[5,4-c]quinolin-2-one], the IC50 was under 1000 nM.

On to `COc1cc2c(cc1-c1c(C)noc1C)nc(CN(C)C)c1oc(=O)n([C@H](C)c3ccccc3)c12` [Example 42, 4-(Dimethylaminomethyl)-7-(3,5-dimethylisoxazol-4-yl)-8-methoxy-1-[(1R)-1-phenylethyl]oxazolo[5,4-c]quinolin-2-one], for which the IC50 was under 1000 nM.

Turning to `COc1cc2c(cc1-c1c(C)noc1C)ncc1oc(=O)n([C@H](C)c3ccc(C#N)cc3)c12` [Example 43, 4-[(1R)-1-[7-(3,5-Dimethylisoxazol-4-yl)-8-methoxy-2-oxo-oxazolo[5,4-c]quinolin-1-yl]ethyl]benzonitrile], the half-maximal inhibitory concentration (IC50) was under 1000 nM.

`COc1cc2c(cc1-c1c(C)noc1C)ncc1oc(=O)n([C@H](C)c3cccc(C#N)c3)c12` [Example 44, 3-[(1R)-1-[7-(3,5-Dimethylisoxazol-4-yl)-8-methoxy-2-oxo-oxazolo[5,4-c]quinolin-1-yl]ethyl]benzonitrile] gave an IC50 of under 1000 nM.

In the case of `COc1cc2c(cc1-c1c(C)noc1C)ncc1oc(=O)n([C@H](C)c3cccc(Cl)c3)c12` [Example 45, 1-[(1R)-1-(3-Chlorophenyl)ethyl]-7-(3,5-dimethylisoxazol-4-yl)-8-methoxy-oxazolo[5,4-c]quinolin-2-one], the IC50 was under 1000 nM.

The compound `COc1cc2c(cc1-c1c(C)noc1C)ncc1oc(=O)n(Cc3ccc(C)cc3)c12` [Example 46, 7-(3,5-Dimethylisoxazol-4-yl)-8-methoxy-1-(p-tolylmethyl)oxazolo[5,4-c]quinolin-2-one] gave an IC50 of under 1000 nM.

In turn, `COc1cc2c(cc1-c1c(C)noc1C)nc(CN(C)C)c1oc(=O)n(Cc3ccccc3)c12` [Example 47, 1-Benzyl-4-(dimethylaminomethyl)-7-(3,5-dimethylisoxazol-4-yl)-8-methoxy-oxazolo[5,4-c]quinolin-2-one] showed an IC50 of under 1000 nM.

`CCN(Cc1nc2cc(-c3c(C)noc3C)c(OC)cc2c2c1oc(=O)n2Cc1ccccc1)C(C)=O` [Example 48, N-[[1-Benzyl-7-(3,5-dimethylisoxazol-4-yl)-8-methoxy-2-oxo-oxazolo[5,4-c]quinolin-4-yl]methyl]-N-ethyl-acetamide]: the IC50 was under 1000 nM.

`COc1cc2c(cc1-c1c(C)noc1C)ncc1oc(=O)n(Cc3ccccc3S(C)(=O)=O)c12` [Example 49, 7-(3,5-Dimethylisoxazol-4-yl)-8-methoxy-1-[(2-methylsulfonylphenyl)methyl]oxazolo[5,4-c]quinolin-2-one] returned an IC50 of under 1000 nM.

The compound `COc1cc2c(cc1-c1c(C)noc1C)ncc1oc(=O)n(Cc3ccccc3C#N)c12` [Example 50, 2-[[7-(3,5-Dimethylisoxazol-4-yl)-8-methoxy-2-oxo-oxazolo[5,4-c]quinolin-1-yl]methyl]benzonitrile] had an IC50 of under 1000 nM.

`COc1cc2c(cc1-c1c(C)noc1C)nc(C(=O)O)c1oc(=O)n([C@H](C)c3ccccc3)c12` [Example 51, 7-(3,5-Dimethylisoxazol-4-yl)-8-methoxy-2-oxo-1-[(1R)-1-phenylethyl]oxazolo[5,4-c]quinoline-4-carboxylic acid] yielded an IC50 of under 1000 nM.

`CCNCc1nc2cc(-c3c(C)noc3C)c(OC)cc2c2c1oc(=O)n2Cc1ccccc1` [Example 52, 1-Benzyl-7-(3,5-dimethylisoxazol-4-yl)-4-(ethylaminomethyl)-8-methoxy-oxazolo[5,4-c]quinolin-2-one] returned an IC50 of under 1000 nM.

The compound `COc1cc2c(cc1-c1c(C)noc1C)ncc1oc(=O)n(Cc3ccc(OC(F)(F)F)cc3)c12` [Example 54, 7-(3,5-Dimethylisoxazol-4-yl)-8-methoxy-1-[[4-(trifluoromethoxy)phenyl]methyl]oxazolo[5,4-c]quinolin-2-one] gave an IC50 of under 1000 nM.
